Source: patent publication US7947270B2, “Removing dental plaque with krill enzymes” (Arcimboldo AB, priority 1992, dated 2011)
Where a SMILES comes first, the peptide text is derived from it.

Columns and labels:
[1] = system: mice with s.c. implanted P388 murine leukemia; assay: toxicity on mice with P388 murine leukemia
[2] = system: mice with P388 murine leukemia; assay: Toxicity on mice with s.c. implanted P388 murine leukemia; type: in vivo; conditions: all mice in doxorubicin group except those receiving the lowest dosage
[3] = system: krill-derived multifunctional hydrolase (antarctic krill), Prep-8 (eluted at pH 8), SEQ ID NO. 1 (N-terminal sequence); assay: Km determination, krill-derived multifunctional hydrolase Prep-8; type: biochemical; conditions: 0.1 M CAPS buffer, 2 mM Ca++, pH 9.5
Procedure: (§1) The krill-derived multifunctional hydrolase was purified by the protocol described above in Example 1C. Three preparations the krill-derived multifunctional hydrolase were prepared. The three preparations differed only in that the krill multifunctional hydrolase was eluted from the trypsin inhibitor gel with buffer at pH 3, pH 8, and pH 11, respectively. These preparations shall be termed “Prep-3,” “Prep-8,” and “Prep-11.” These preparations were dissolved in water to a concentration of 6 mg/ml.
(§2) The SDS bands were electroblotted onto PVDF membranes and sequenced through 25 cycles of Edman degradation. See, Matsudaira, J. Biol. Chem., 262: 10035-10038, 1987. […] Accordingly, it is clear that all three preparations are homogenous, although each is micro-heterogeneous at position 5. The proteolytic activity of each of the three preparations was tested against substrate benzoyl-val-gly-arg-p-nitroaniline. Hydrolysis of this substrate can be monitored at […], reflecting the release of p-nitroaniline. The profile for Prep-3 (shown with filled squares), Prep-8 (shown with open diamonds) and Prep-11 (shown with filled diamonds) are identical.

[4] = system: krill-derived multifunctional hydrolase (antarctic krill), Prep-3 (eluted at pH 3), SEQ ID NO. 1 (N-terminal sequence); assay: Km determination, krill-derived multifunctional hydrolase Prep-3; type: biochemical; conditions: 0.1 M CAPS buffer, 2 mM Ca++, pH 9.5
Procedure: as §1, §2

[5] = system: krill-derived multifunctional hydrolase (antarctic krill), Prep-11 (eluted at pH 11), SEQ ID NO. 1 (N-terminal sequence); assay: Km determination, krill-derived multifunctional hydrolase Prep-11; type: biochemical; conditions: 0.1 M CAPS buffer, 2 mM Ca++, pH 9.5
Procedure: as §1, §2

[6] = system: krill-derived multifunctional hydrolase; assay: protease inhibitors at pH 9.5 against hydrolase preparations; type: biochemical, antarctic krill
Procedure: The effectiveness of three protease inhibitors was tested at pH 9.5 against the three hydrolase preparations.

[7] = biological target: krill-derived multifunctional hydrolase (antarctic krill); assay: cell-based or functional assay
Chain of krill-derived multifunctional hydrolase (antarctic krill) (P86599 1-25): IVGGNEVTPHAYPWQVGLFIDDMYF

HL60 cells = assay: in vitro binding of HL60 cells to endothelial cells; type: cell-based, human
Procedure: Endothelial cells were first passaged onto 96 well plates at a given concentration. The endothelial cells used in the experiment are described in Edgell et al., Proc. Natl. Acad. Sci. USA (1983) 80:3734. The cells were incubated at 37° C. under a DMEM cell culture medium containing 10% fetal calf serum and under a 5% CO2 atmosphere. Then, the medium was removed and replaced with 100 μl of a suspension of 200,000 HL60 cells (a […], available from the European Cell Culture Bank under ECACC Accession No. 85011431) in RPMI medium containing 10% fetal calf serum. The cells were incubated for 30 minutes. After this, the medium was removed and the adherent cells were washed two times with DMEM medium. The relative adherence of the HL60 cells was measured by measuring the difference in optical density at 450 nm between the plates on which the cells were co-incubated and plates having endothelial cells alone.
The effect of TNFα was measured by adding TNFα at 1500 units/ml to the endothelial cells 4 hours before the incubation with HL60 cells. The effect of antibody to E-selectin was measured by adding 25 μg/ml of monoclonal antibody BBAZ (R&D Systems Europe, Oxford, England) to the HL60 cells. The results of the experiments were: […]
The number of HL60 cells was determined by subtracting the cell numbers for control plates having only endothelial cells. […]

[8] = system: krill-derived multifunctional hydrolase (Prep-8); assay: protease inhibitors against Prep-8 at pH 7.5; type: biochemical, antarctic krill
Procedure: The effectiveness of other protease inhibitors against Prep-8 was tested in a 0.1 M Tris-HCl buffer pH 7.5. Benzoyl-val-gly-arg-p-nitroanilide (“ARG-p-NA”) and succinyl-ala-pro-phe-p-nitroanilide (Phe-pNA) were used as substrates.

[9] = Prep-11, pH 9.5, inhibitor 1 μM
[10] = substrate Arg-pNA, inhibitor 0.2 μM, pH 7.5
[11] = substrate Phe-pNA, inhibitor 0.2 μM, pH 7.5
[12] = substrate Arg-pNA, inhibitor 10 μM, pH 7.5
[13] = substrate Phe-pNA, inhibitor 10 μM, 0.1 M Tris-HCl pH 7.5

Molecule: COc1cccc2c1C(=O)c1c(O)c3c(c(O)c1C2=O)C[C@@](O)(C(=O)CO)C[C@@H]3O[C@H]1C[C@H](N)[C@H](O)[C@H](C)O1 [DOX, doxorubicin]
- Toxic death ([1]; 2.5 mg/kg i.p. daily, 9 consecutive days): 6/6
- death and weight loss (summary) ([1]; all doses): all mice in the doxorubicin group, except for those receiving the lowest dosage, lost weight and died
- weight loss and death of mice [2]: lost weight and died

Molecule: C[C@H](NC(=O)CCC(=O)O)C(=O)N[C@@H](C)C(=O)N1CCC[C@H]1C(=O)N[C@@H](Cc1ccccc1)C(=O)Nc1ccc([N+](=O)[O-])cc1 [succinyl-ala-ala-pro-phe-p-nitroanilide] (HELM PEPTIDE1{[O=C(O)CCC(=O)[*:2]].A.A.P.F.[O=[N+]([O-])c1ccc(N[*:1])cc1]}$$$$V2.0)
- Km [3]: 270 ± 50 µM
- Km [4]: 260 ± 50 µM
- Km [5]: 270 ± 40 µM

Molecule: Bovine pancreatic trypsin inhibitor
- % activity remaining ([6]; Prep-3, pH 9.5, inhibitor 1 μM): 2%
- % activity remaining ([6]; Prep-8, pH 9.5, inhibitor 1 μM): 1%
- % activity remaining [6, 9]: 1%

Molecule: α-proteinase inhibitor
- Activity remaining, % of Prep-8 with 0.2 µM inhibitor, substrate Arg-pNA, pH 7.5 (% activity remaining) [7]: 0
- Activity remaining, % of Prep-8 with 0.2 µM inhibitor, substrate Phe-pNA, pH 7.5 (% activity remaining) [7]: 0

Molecule: Anti-Thrombin III [listing 1 of 2 here]
- Activity remaining, % of Prep-8 with 0.2 µM inhibitor, substrate Arg-pNA, pH 7.5 (% activity remaining) [7]: 4
- Activity remaining, % of Prep-8 with 0.2 µM inhibitor, substrate Phe-pNA, pH 7.5 (% activity remaining) [7]: 2

Molecule: CC(C)[C@H](NC(=O)c1ccccc1)C(=O)NCC(=O)N[C@@H](CCCNC(=N)N)C(=O)Nc1ccc([N+](=O)[O-])cc1 [benzoyl-pal-gly-arg-p-nitroanilide] (HELM PEPTIDE1{[O=C(c1ccccc1)[*:2]].V.G.R.[O=[N+]([O-])c1ccc(N[*:1])cc1]}$$$$V2.0)
- Km [3]: 210 ± 8 µM
- Km [4]: 210 ± 8 µM
- Km [5]: 230 ± 13 µM

Molecule: TNFα
- HL60 cell number (HL60 cells; Expt 2: endothelial cells pretreated with TNFα): 43,990
- Absorbance (increase over endothelial cells alone) (HL60 cells; Expt 2: endothelial cells pretreated with TNFα 1500 units/ml 4 hours): 0.444

Molecule: Eglin C fragment (peptide)
- Activity remaining, % of Prep-8 with 8.4 µM inhibitor, substrate Phe-pNA, pH 7.5 (% activity remaining) [7]: 100

Molecule: Anti-Thrombin III [listing 2 of 2 here]
- Activity remaining, % [8, 10]: 4%
- Activity remaining, % [8, 11]: 2%

Molecule: CC(C)C[C@H](NP(=O)(O)O[C@@H]1O[C@@H](C)[C@H](O)[C@@H](O)[C@H]1O)C(=O)N[C@@H](Cc1c[nH]c2ccccc12)C(=O)O [Phosphoramidon]
- Activity remaining, % [8, 12]: 87%
- Activity remaining, % [8, 13]: 94%

Molecule: CC(C)C[C@H](NC(=O)N[C@H](C(=O)N[C@@H](CCC(N)=O)C(=O)N[C@@H](C)C=O)[C@@H]1CCNC(=N)N1)C(=O)O [Elastatinal]
- Activity remaining, % [8, 12]: 100%
- Activity remaining, % [8, 13]: 100%

Molecule: α-proteinase inhibitor: protease inhibitor
- Activity remaining, % [8, 10]: 0%
- Activity remaining, % [8, 11]: 0%

Molecule: CC(C)C[C@H](NC(=O)[C@@H](NC(=O)N[C@@H](Cc1ccccc1)C(=O)O)[C@@H]1CCN=C(N)N1)C(=O)N[C@H](C=O)Cc1ccccc1 [Chymostatin]
- % activity remaining ([6]; Prep-3, pH 9.5, inhibitor 1 μM): 0%
- % activity remaining ([6]; Prep-8, pH 9.5, inhibitor 1 μM): 0%
- % activity remaining [6, 9]: 0%

B1: α-anti-chymotrypsin (protein, UniProt P01011 24-423, looked up, species assumed)
Alpha-1-antichymotrypsin: HPNSPLDEENLTQENQDRGTHVDLGLASANVDFAFSLYKQLVLKAPDKNVIFSPLSISTALAFLSLGAHNTTLTEILKGLKFNLTETSEAEIHQSFQHLLRTLNQSSDELQLSMGNAMFVKEQLSLLDRFTEDAKRLYGSEAFATDFQDSAAAKKLINDYVKNGTRGKITDLIKDLDSQTMMVLVNYIFFKAKWEMPFDPQDTHQSRFYLSKKKWVMVPMMSLHHLTIPYFRDEELSCTVVELKYTGNASALFILPDQDKMEEVEAMLLPETLKRWRDSLEFREIGELYLPKFSISRDYNLNDILLQLGIEEAFTSKADLSGITGARNLAVSQVVHKAVLDVFEEGTEASAATAVKITLLSALVETRTIVRFNRPFLMIIVPTDTQNIFFMSKVTNPKQA
- Activity remaining, % of Prep-8 with 0.2 µM inhibitor, substrate Arg-pNA, pH 7.5 (% activity remaining) [7]: 7
- Activity remaining, % of Prep-8 with 0.2 µM inhibitor, substrate Phe-pNA, pH 7.5 (% activity remaining) [7]: 1
- Activity remaining, % [8, 10]: 7%
- Activity remaining, % [8, 11]: 1%
